Publication PMC6570762, “Identification of a binding protein for sesamin and characterization of its roles in plant growth” (Scientific Reports, 2019)

Biological target: T1, Steroleosin B (GST-fused Steroleosin B) (Sesamum indicum, UniProt Q8LKV5)
T1 construct: gene SOP3
T1 sequence (Q8LKV5 1-362): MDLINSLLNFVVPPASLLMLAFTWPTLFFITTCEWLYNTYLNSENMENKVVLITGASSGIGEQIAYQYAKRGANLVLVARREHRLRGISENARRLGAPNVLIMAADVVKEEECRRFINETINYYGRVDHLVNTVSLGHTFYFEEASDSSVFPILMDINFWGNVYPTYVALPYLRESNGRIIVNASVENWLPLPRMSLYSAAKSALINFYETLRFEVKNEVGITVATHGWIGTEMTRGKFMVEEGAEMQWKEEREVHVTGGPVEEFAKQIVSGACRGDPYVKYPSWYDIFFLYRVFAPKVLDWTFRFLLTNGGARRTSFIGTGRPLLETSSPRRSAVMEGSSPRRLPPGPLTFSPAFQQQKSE
Test: STD-NMR ([…] MHz)
Assay type: binding
Conditions: 60 μM sesamin, 0.5 μM GST-Steroleosin B, stated ligand:protein ratio 60:1; PBS in D2O, 5% DMSO-d6, 298 K; GST alone as control

Structure (SMILES): c1cc2c(cc1[C@H]1OC[C@H]3[C@@H]1CO[C@@H]3c1ccc3c(c1)OCO3)OCO2 [sesamin]
- STD-NMR (800 MHz): these results demonstrate the direct interaction between sesamin and Steroleosin B
